# From ChEMBL document CHEMBL3832761, “MMV Pathogen Box Bioactivity Data” (2017)
# Experiments:
# [1] = system: MRC5; experiment: MRC5 CC50 (uM) Cytotoxicity; format: functional; conditions: Homo sapiens
# [2] = system: Trypanosoma cruzi; experiment: AntiTrypanosoma cruzi activity IC50 (uM); format: functional, organism-based
# [3] = system: Leishmania infantum; experiment: AntiLeishmania activity L. infantum (macrophages) IC50 (uM); format: functional, organism-based
# [4] = PMM CC50 (uM) Cytotoxicity; format: functional; conditions: Macrophage
# [5] = system: Trypanosoma brucei; experiment: AntiTrypanosoma brucei activity T. b. brucei IC50 (uM); format: functional, organism-based
# [6] = system: Trypanosoma brucei; experiment: AntiTrypanosoma brucei activity T. b. rhodesiense IC50 (uM); format: functional, organism-based
# [7] = system: Plasmodium falciparum; experiment: Antimalarial activity: Gametocytes Plasmodium falciparum NF54 Gametocytes Stage V: inhibition at 10 uM (%); format: functional
# [8] = system: HepG2; experiment: HepG2 inhibition at 10 uM (%) Cytotoxicity; format: functional; conditions: Homo sapiens
# [9] = system: Plasmodium falciparum; experiment: Antimalarial activity: Asexual Blood Stage Plasmodium falciparum W2 IC50 (uM); format: functional, organism-based
# [10] = system: HepG2; experiment: Cytotoxicity data HepG2 CC20 (uM); format: functional
# [11] = system: Plasmodium falciparum; experiment: Antimalarial activity: Asexual Blood Stage Plasmodium falciparum Dd2 IC50 (uM); format: functional, organism-based
# [12] = system: Plasmodium berghei; experiment: Antimalarial activity: Liver Stage Plasmodium berghei sporozoite Luciferase assay: inhibition at 10 uM (%); format: functional
# [13] = system: Plasmodium falciparum; experiment: Antimalarial activity: Asexual Blood Stage Plasmodium falciparum 3D7 IC50 (uM); format: functional, organism-based
SMILES,CC50 [1] [nM],IC50 [2] [nM],IC50 [3] [nM],CC50 [4] [nM],IC50 [5] [nM],IC50 [6] [nM],Inhibition [7] [%],inhibition at 10 µM [8] [%],IC50 [9] [nM],CC20 [10] [nM],IC50 [11] [nM],Inhibition [12] [%],IC50 [13] [nM]
CS(=O)(=O)c1ccccc1C(=O)N(Cc1ccccc1)c1ccccc1,> 64000,35400,> 64000,> 64000,560,400,–,–,–,–,–,–,–
Cc1cc2ccccc2n1CC(=O)N1CC(C(=O)N2CCCCC2)Oc2ccccc21 (configuration not stated),–,–,–,–,–,–,30,10,1050,21800,770,1,1080
CC1CCCCN1C(=O)NCCc1coc(-c2ccc(F)cc2)n1 (configuration not stated),> 64000,480,> 64000,> 64000,130,110,–,–,–,–,–,–,–
COc1ccc(C2CC(c3cccs3)=NN2C(=O)c2ccco2)cc1OC (configuration not stated),–,–,–,–,–,–,1,15,850,43100,980,26,300
CCC(=O)Nc1ccccc1C(=O)Nc1ccccn1,> 64000,> 64000,> 64000,> 64000,2460,1310,–,–,–,–,–,–,–
O=C(Nc1ccc(F)c(-c2nc3cc(-c4ccccc4)cnc3[nH]2)c1)N1CCCC1,400,< 130,160,16000,< 130,< 130,–,–,–,–,–,–,–
CO/C=C(/C(=O)OC)c1ccccc1Oc1cc(Oc2ccccc2C#N)ncn1 [AZOXYSTROBIN],> 28000,–,–,–,–,–,32.5,37,30,–,90,97,50
CNCCC(Oc1ccc(C(F)(F)F)cc1)c1ccccc1 (configuration not stated) [FLUOXETINE],11400,–,–,16000,–,–,–,–,–,8970,–,–,–
CC(C)c1ncc(-c2ccncc2)c([C@H]2CC[C@H](CNC(=O)c3cccnc3)CC2)n1,–,–,–,–,–,–,3,0,660,>80000,1000,0,840
CNC(=O)c1cc(S(=O)(=O)N2CCN(c3ccccn3)CC2)cs1,–,–,–,–,–,–,34,6,970,>80000,850,9,1110
C[C@H](c1ccc2c(c1)CCCC2)N(C)c1ncc2c(N)nc(N)nc2n1,7100,–,470,8000,–,–,–,–,–,–,–,–,–
Cc1noc(C)c1COc1cccc(C(=O)N=c2[nH]cccc2C)c1,> 64000,> 64000,> 64000,> 64000,2070,650,–,–,–,–,–,–,–
Cc1cc(Nc2ccncc2)n2nc(C)c(-c3ccccc3Cl)c2n1,–,–,–,–,–,–,46,3,490,80000,690,35,630
CC(C(=O)N1CCCC1)N1CCN(S(=O)(=O)c2ccc(C(C)(C)C)cc2)CC1 (configuration not stated),–,–,–,–,–,–,1,0,2170,>80000,1330,18,900
CCOC(=O)c1noc(N)c1-c1ccccc1,> 64000,> 64000,> 64000,> 64000,1220,460,–,–,–,–,–,–,–
FC(F)(F)c1ccc(N(c2cccnc2)C2CCN(c3ccc(C(F)(F)F)cn3)CC2)cc1,–,10,–,–,–,–,–,–,–,25800,–,–,–
CC(c1cc(Cl)cc(Cl)c1)N(C)c1ncc2c(N)nc(N)nc2n1 (configuration not stated),5900,–,540,> 32000,–,–,–,–,–,–,–,–,–

SMILES,CC50 [1] [nM],IC50 [2] [nM],IC50 [3] [nM],CC50 [4] [nM],IC50 [5] [nM],IC50 [6] [nM],Inhibition [7] [%],inhibition at 10 µM [8] [%],IC50 [9] [nM],CC20 [10] [nM],IC50 [11] [nM],Inhibition [12] [%],IC50 [13] [nM]
COc1ccc(Cl)cc1NC(=O)CN(C)C(=O)c1cnn(-c2ccccc2)n1,–,–,–,–,–,–,60,6,290,72200,240,48,240
Cc1noc(C)c1C(=O)N1CCCC(c2[nH]c3c(C)cccc3c2-c2ccncc2)C1 (configuration not stated),–,–,–,–,–,–,42,0,620,>80000,740,52,940
O=C(Nc1cnc2ccccc2c1)c1cccc(-n2cnnn2)c1,–,–,–,–,–,–,1,0,580,>80000,1880,0,540
Cc1ccc2cc(C3NC(=O)c4ccccc4N3)c(Cl)nc2c1 (configuration not stated),–,–,–,–,–,–,0,2,990,>80000,2320,37,1660
O=C(c1ccc(NCCO)cc1)C1C[C@H]1c1ccc(Cl)cc1 (some centres not stated),–,–,–,–,–,–,20,5,2260,12800,1630,44,660
CC(C)C(C(=O)Nc1ccc(S(=O)(=O)N(C)C)cc1)c1ccc(Cl)cc1 (configuration not stated),–,–,–,–,–,–,31,17,790,5350,640,66,930
COc1ccccc1C(C)NCC(=O)Nc1cc(C(F)(F)F)ccc1Cl (configuration not stated),–,–,–,–,–,–,1,13,1400,33700,2820,55,1380
CN1CCN(S(=O)(=O)c2ccc(-c3ccc4c(Nc5ccc6nn[nH]c6c5)ccnc4c3)cc2)CC1,–,–,–,–,–,–,8,0,800,>80000,420,0,420
COc1ccc(Oc2ccc([C@@H](C)N(C)c3ncc4c(N)nc(N)nc4n3)cc2)cc1,5400,–,30,4000,–,–,–,–,–,–,–,–,–
O=C([C@@H](c1ccc(Cl)cc1)c1cccnc1)N1CCN(c2ccc(C(F)(F)F)cc2)CC1,–,10,–,–,–,–,–,–,–,19000,–,–,–
CNc1cc(C)nc(C2CN(C(=O)c3n[nH]c4ccccc34)CCO2)c1 (configuration not stated),> 64000,3890,–,–,–,–,–,–,–,–,–,–,–
O=S(=O)(c1ccc(Cl)cc1)N1CCN(C(=S)NCc2ccco2)CC1,–,–,–,–,–,–,32,0,1250,28300,760,23,1200
COc1ccc(C2=NN(C3CCCCCC3)C(=O)[C@@H]3CC=CC[C@H]23)cc1OCCCCOc1ccc(-c2nnn[nH]2)cc1,–,–,–,–,20,–,–,–,–,–,–,–,–
COc1ccc(C2=NN(C3CCCCCC3)C(=O)C2(C)C)cc1OCCCCOc1ccc(-c2nn[nH]n2)cc1,–,–,–,–,790,–,–,–,–,–,–,–,–
COc1ccccc1CNC(=O)c1cc(C2CC2)nc2c1cnn2C(C)C,–,–,–,–,–,–,36,5,2030,11300,1500,39,940
CC(C)NCC(=O)Nc1cccc(C(=O)Nc2cccc(C(F)(F)F)c2)c1,–,–,–,–,–,–,40,0,2250,11500,4100,47,350
